Measured values published in publication PMC11940309, “Endocrine-Disrupting Activities of Flavones on Steroid Receptors: Structural Requirements and Synthesis of Novel Flavone with Improved Estrogenic Activity” (Biomedicines, 2025).
Read-outs that look alike come from different tables or passages of the source.

How the values were obtained:
estrogen receptor (ER) = test: ER-mediated luciferase reporter induction in T47D KBluc cells; assay type: cell-based, human; conditions: relative to 1nM estradiol
Experimental: Experiments testing the effect of flavonoids on estrogen receptor-mediated transcription employed T47D KBluc cells. These cells were maintained in RPMI medium with 10% FBS, penicillin (100 U/mL), and streptomycin (100 μg/mL). For reporter gene experiments, cells were detached as above and replated at 50% confluency in phenol red-free RPMI media with 10% charcoal-stripped FBS and antibiotics (day one). All subsequent steps used phenol red-free medium and trypsin. On day three, the medium was replaced with fresh medium. On day five, cells were washed with PBSE, detached, resuspended, diluted, and replated in the phenol red-free RPMI with charcoal-stripped serum (50,000 cells per well as above).
(§1) For all cell lines, cell harvesting and the luminescence assay for alkaline phosphatase and/or luciferase were performed as previously described in detail. Each condition was performed in quadruplicate. […] Percent inhibition is 100 minus the percent induction.

[1] = biological target: T1, progesterone receptor (PR) (Homo sapiens, UniProt P06401); test: PR-mediated induction of transcription by R5020 in T47D K5pLuc cells (luciferase reporter and endogenous alkaline phosphatase); assay type: cell-based; conditions: for inhibition at 4 µM / inhibition at 8 µM: T47D; for inhibition at 4 µM / inhibition at 8 µM / % Inhibition of PR Induction: R5020 1.0 nM
T1 sequence (P06401 679-933 limits assumed): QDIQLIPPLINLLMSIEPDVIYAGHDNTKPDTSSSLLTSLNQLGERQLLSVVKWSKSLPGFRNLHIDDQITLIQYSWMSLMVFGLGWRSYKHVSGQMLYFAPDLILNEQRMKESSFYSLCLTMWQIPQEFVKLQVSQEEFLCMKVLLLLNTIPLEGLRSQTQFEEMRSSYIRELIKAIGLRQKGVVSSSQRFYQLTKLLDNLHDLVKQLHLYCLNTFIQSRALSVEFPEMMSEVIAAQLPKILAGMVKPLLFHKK
Description: (§2) The engineered T47D breast cancer cell lines employed for the assessment of flavonoid activity on glucocorticoid receptor (GR) and progesterone receptor (PR) signaling permitted the facile quantitation transcription of both an endogenous gene and a stably integrated reporter gene. […] The T47D K5pLuc cell line responds to progestins via induction of a stably integrated cytokeratin 5-luciferase reporter gene. […] For assessment of the effect of the test compounds on androgen receptor (AR) signaling, we used the HeLa13 cell line engineered to stably express human AR and a PSA-luciferase reporter gene containing a 4× multimerized PSA upstream enhancer ARE1 linked to the E4 TATA box and luciferase gene.
Experiments testing the effect of flavonoids on progesterone receptor-mediated transcription employed T47D K5pluc cells. The protocol was the same as that for T47D (A1-2) cells except the medium was Dulbecco’s Modified Eagle’s Medium supplemented with 10% FBS, insulin (10 nM), puromycin 200 ng/mL, nonessential amino acids, penicillin (100 U/mL), and streptomycin (100 μg/mL). When treated with hormone, the synthetic progestin, R5020, was used at 1.0 nM. Hormone treatment was for 20 h at which time cells were harvested for assay of alkaline phosphatase and luciferase.
as §1

human AR = biological target: T2, human AR (Homo sapiens, UniProt P10275); test: AR-mediated induction of PSA-luciferase reporter by R1881 in HeLa13 cells; assay type: cell-based; conditions: for inhibition at 1 µM / inhibition at 4 µM: read-out: % Inhibition of AR-Mediated Gene Induction
T2 construct: expressed in transfected cells; host or cells: HeLa13 (HeLa 13)
T2 sequence (P10275 1-920): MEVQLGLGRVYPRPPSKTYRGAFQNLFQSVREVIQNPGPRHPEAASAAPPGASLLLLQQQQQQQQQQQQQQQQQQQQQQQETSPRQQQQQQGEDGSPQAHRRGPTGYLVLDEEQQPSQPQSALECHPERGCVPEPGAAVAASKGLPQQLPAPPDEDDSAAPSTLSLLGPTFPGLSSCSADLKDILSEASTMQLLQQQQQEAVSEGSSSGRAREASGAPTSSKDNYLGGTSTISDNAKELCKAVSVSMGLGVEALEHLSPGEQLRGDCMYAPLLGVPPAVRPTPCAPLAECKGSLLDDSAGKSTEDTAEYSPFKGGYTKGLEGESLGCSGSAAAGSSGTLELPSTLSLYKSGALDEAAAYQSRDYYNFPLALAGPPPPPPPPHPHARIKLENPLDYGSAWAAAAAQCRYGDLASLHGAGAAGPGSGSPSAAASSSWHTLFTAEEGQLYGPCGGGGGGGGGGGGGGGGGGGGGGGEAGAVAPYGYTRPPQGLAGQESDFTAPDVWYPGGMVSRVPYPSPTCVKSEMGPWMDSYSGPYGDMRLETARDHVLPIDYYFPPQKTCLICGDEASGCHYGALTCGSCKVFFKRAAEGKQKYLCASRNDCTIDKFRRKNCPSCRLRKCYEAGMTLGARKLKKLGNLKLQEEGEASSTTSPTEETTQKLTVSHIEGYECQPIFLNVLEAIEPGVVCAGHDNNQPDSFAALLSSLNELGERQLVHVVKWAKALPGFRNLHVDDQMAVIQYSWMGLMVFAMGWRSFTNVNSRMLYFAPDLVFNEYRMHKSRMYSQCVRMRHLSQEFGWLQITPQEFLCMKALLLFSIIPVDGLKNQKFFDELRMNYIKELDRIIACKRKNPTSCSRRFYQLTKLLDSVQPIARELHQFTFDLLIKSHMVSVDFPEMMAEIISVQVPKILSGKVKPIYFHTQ
Description: as §2
Experiments testing the effect of flavonoid on androgen receptor-mediated transcription employed HeLa 13 cells maintained in MEM medium supplemented with 10% FBS, 0.5 mg/mL G418, 0.05 mg/mL Hygromycin B, […], and streptomycin (100 μg/mL). For reporter gene experiments, cells were replated at a 1:5 dilution in MEM medium with 5% charcoal-stripped FBS and the antibiotics mentioned above. The medium was changed the next day. After 48 h, the cells were washed with PBSE, detached with phenol red-free trypsin, pelleted, resuspended and plated in 96 well plates as above. Hormone and flavonoid treatments were performed as described above with the HeLa 13 medium and charcoal-stripped FBS. When treated with hormone, the synthetic androgen, R1881, was used at 1.0 nM. Hormone treatment was for 20 h at which time cells were harvested for assay of luciferase.
as §1

[2] = 4 µM, AP (alkaline phosphatase)
[3] = 8 µM, AP (alkaline phosphatase)

Row | Compound | % ER Induction (estrogen receptor (ER); 1 µM) | % ER Induction (estrogen receptor (ER); 4 µM) | inhibition at 4 µM [1, 2] | inhibition at 4 µM ([1]; 4 µM, LUC (luciferase)) | inhibition at 8 µM [1, 3] | inhibition at 8 µM ([1]; 8 µM, LUC (luciferase)) | inhibition at 1 µM (human AR; 1 µM, R1881 1.0 nM) | inhibition at 4 µM (human AR; 4 µM, R1881 1.0 nM) | inhibition at 1 µM (human AR) | inhibition at 4 µM (human AR) | IC50 (human AR; R1881, read-out: IC50, AR antagonism) | % Inhibition of PR Induction [1, 2] | % Inhibition of PR Induction ([1]; 4 µM, LUC (luciferase)) | % Inhibition of PR Induction [1, 3] | % Inhibition of PR Induction ([1]; 8 µM, LUC (luciferase)) | % Inhibition of AR-Mediated Gene Induction (human AR; 1 µM, R1881 1.0 nM) | % Inhibition of AR-Mediated Gene Induction (human AR; 4 µM, R1881 1.0 nM) | inhibition of PR-mediated gene expression of both reporter genes ([1]; 4.0 micromolar) | inhibition of PR-mediated gene expression of both reporter genes ([1]; 8.0 micromolar) | IC50 ([1]; R5020, alkaline phosphatase and luciferase, read-out: IC50, inhibition of PR-mediated induction of gene expression)
1 | O=c1cc(-c2ccc(O)c(O)c2)oc2ccccc12 [3′,4′-dihydroxyflavone] | 0% | 13% | 8% | -64% | 27% | -14% | 40% | 75% | – | – | – | – | – | – | – | – | – | – | – | –
2 | O=c1cc(-c2ccc(O)cc2)oc2ccccc12 [4′-hydroxyflavone] | 12% | 130% | 31% | -62% | 49% | -81% | 29% | 65% | – | – | – | – | – | – | – | – | – | – | – | –
3 | O=c1cc(-c2ccc(O)c(O)c2)oc2cccc(O)c12 [5,3′,4′-trihydroxyflavone] | 0% | 13% | 46% | -7% | 65% | 55% | – | – | 29% | 91% | – | – | – | – | – | – | – | – | – | –
4 | O=c1cc(-c2ccc(O)cc2)oc2cccc(O)c12 [5,4′-dihydroxyflavone] | 53% | 138% | 23% | -12% | 74% | 80% | 77% | 97% | – | – | ~500 nM | – | – | – | – | – | – | – | – | –
5 | O=c1cc(-c2cc(O)c(O)c(O)c2)oc2cc(O)cc(O)c12 [5,7,3′4′,5′-pentahydroxyflavone] | 0% | −1% | – | – | – | – | – | – | – | – | – | 12% | −97% | 45% | −19% | −8% | 24% | – | – | –
6 | O=C1CC(c2ccc(O)c(O)c2)Oc2cc(O)cc(O)c21 (stereo not drawn) [5,7,3′,4′-tetrahydroxyflavanone] | 0% | 20% | 8% | 3% | 40% | 23% | – | – | 13% | 24% | – | – | – | – | – | – | – | – | – | –
7 | O=c1cc(-c2ccc(O)c(O)c2)oc2cc(O)cc(O)c12 [5,7,3′,4′-tetrahydroxyflavone] | 3% | 80% | 82% | 76% | 95% | 95% | -20% | 67% | – | – | – | – | – | – | – | – | – | at least 70% | ≥ 90% | 1000 to 2000 nM
8 | COc1ccc([C@@H]2CC(=O)c3c(O)cc(O)cc3O2)cc1O [5,7,3′-triOH, 4′methoxyflavanone] | 10% | 6% | 8% | -6% | 28% | 16% | – | – | -28% | -30% | – | – | – | – | – | – | – | – | – | –
9 | O=C1CC(c2ccc(O)cc2)Oc2cc(O)cc(O)c21 (stereo not drawn) [5,7,4′-trihydroxyflavanone] | 48% | 93% | 43% | 52% | 90% | 98% | -17% | 9% | – | – | – | – | – | – | – | – | – | – | – | –
10 | O=c1c(-c2ccc(O)cc2)coc2cc(O)cc(O)c12 [5,7,4′-trihydroxyisoflavone] | 125% | 180% | 49% | -96% | 32% | – | 55% | 22% | – | – | – | – | – | – | – | – | – | – | – | –
11 | O=c1cc(-c2ccccc2)oc2cc(O)cc(O)c12 [5,7-dihydroxyflavone] | – | – | 78% | 71% | 89% | 90% | -13% | 46% | – | – | – | – | – | – | – | – | – | at least 70% | ≥ 90% | –
12 | O=c1cc(-c2ccc(O)cc2)oc2ccc(O)cc12 [6,4′-dihydroxyflavone] | 119% | 192% | 39% | -147% | 37% | -103% | 43% | 54% | – | – | – | – | – | – | – | – | – | – | – | –
